Experimental data as given in the supplement of paper PMC10307832.

Assays:
[1] = compound: CC(C)C[C@@H](C(=O)N[C@H](C(=O)OC1CCCC1)c1ccccc1)[C@H](O)C(=O)NO [Tosedostat] + COc1cc2c(Oc3ccc(NC(=O)C4(C(=O)Nc5ccc(F)cc5)CC4)cc3F)ccnc2cc1OCCCN1CCOCC1 [Foretinib] (partner 0.25 µM); experiment: relative viability (nuclei count vs DMSO), 5 days (fraction); higher = more cells survive
Method in brief: (§1)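 Medians of duplicate plates are given as relative viability. That measure is the nuclei count in treated wells divided by the count in vehicle wells. Counts were taken on 4× images of lung cancer cell lines in 1536-well plates, 5 days after pin-tool dosing the day after seeding with one drug alone or a fixed anchor-drug dose plus five library-drug doses (not always all listed) in √10 steps.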

[2] = compound: CC1=NN=C(O1)C2=NN=C(C=C2)N3CCC(CC3)OC4=C(C=CC(=C4)F)Cl + Cc1cc(Nc2cc(N3CCN(C)CC3)nc(Sc3ccc(NC(=O)C4CC4)cc3)n2)n[nH]1 [Tozasertib] (partner 0.1 µM); experiment: as above
Method in brief: as §1

Cell Line	relative viability ([1]; first compound 0.02 µM)	relative viability ([1]; first compound 0.06325 µM)	relative viability ([1]; first compound 0.2 µM)	relative viability ([1]; first compound 0.6325 µM)	relative viability ([1]; first compound 2 µM)	relative viability ([2]; first compound 0.253 µM)	relative viability ([2]; first compound 0.8 µM)	relative viability ([2]; first compound 2.53 µM)	relative viability ([2]; first compound 8 µM)
NCI-H2085	0.919	0.971	0.915	0.965	0.875	0.454	0.614	0.538	0.515
CAL-12T	1.15	1.04	1.22	1.11	1.05	0.26	0.241	0.227	0.216
NCI-H1623	0.825	0.905	0.856	0.843	0.794	0.322	0.435	0.372	0.385
HCC-44	–	–	–	–	–	0.545	0.564	0.513	0.487
EKVX	0.649	0.759	0.795	0.736	0.729	0.258	0.15	0.196	0.196
NCI-H1734	0.93	0.859	0.826	0.818	0.652	0.262	0.287	0.216	0.247
NCI-H1944	0.984	0.787	0.864	0.822	0.773	0.22	0.216	0.213	0.229
Calu-6	1.04	0.858	0.826	0.638	0.559	–	–	–	–
EBC-1	0.112	0.0828	0.0952	0.115	0.117	–	–	–	–
NCI-H596	0.905	0.872	0.938	0.764	0.839	0.966	0.716	0.862	0.826
A-427	0.979	1	1.07	1.12	0.877	0.23	–	0.168	0.168
NCI-H441	0.906	1.1	0.992	0.63	0.604	0.457	0.388	0.423	0.419
NCI-H1563	0.961	0.997	0.958	1.12	1	–	–	–	–
NCI-H358	0.872	0.634	0.473	0.289	0.347	0.107	0.0958	0.116	0.0977
LOU-NH91	0.981	0.955	0.882	0.887	0.871	0.585	0.587	0.664	0.677
NCI-H3122	1.01	0.901	1.01	0.967	1.07	0.151	0.137	0.144	0.155
HOP-62	1.27	1.09	1.09	1.02	1	0.296	0.288	0.205	0.222
HARA	0.941	0.914	0.852	0.813	0.787	0.0993	0.0831	0.0894	0.0804

Cell Line	relative viability ([1]; first compound 0.02 µM)	relative viability ([1]; first compound 0.06325 µM)	relative viability ([1]; first compound 0.2 µM)	relative viability ([1]; first compound 0.6325 µM)	relative viability ([1]; first compound 2 µM)	relative viability ([2]; first compound 0.253 µM)	relative viability ([2]; first compound 0.8 µM)	relative viability ([2]; first compound 2.53 µM)	relative viability ([2]; first compound 8 µM)
SW 1573	0.877	0.906	0.924	0.825	0.974	0.131	0.13	0.181	0.246
NCI-H1993	0.72	0.565	0.793	0.675	0.534	0.558	0.603	0.635	0.571
HCC-78	0.518	0.59	0.545	0.662	0.684	0.376	0.319	0.266	0.288
IA-LM	1.18	1.19	1.19	1.12	0.903	–	–	–	–
NCI-H647	1.36	1.14	1.18	1.04	1.17	0.166	0.105	0.126	0.0876
NCI-H520	0.807	0.776	–	0.834	0.819	–	0.38	0.398	0.443
NCI-H1355	0.93	0.991	0.99	0.92	0.883	0.496	0.344	0.402	0.365
COR-L23	1.04	1.03	0.975	1.07	1.06	0.166	0.131	0.145	0.121
NCI-H2347	0.711	0.731	1.04	0.955	0.969	–	0.447	0.579	0.497
LC-2-ad	0.987	0.939	0.941	0.842	0.806	0.38	0.354	0.359	0.344
NCI-H2023	0.782	0.779	0.764	–	0.808	0.301	0.216	0.205	0.147
NCI-H1793	0.559	0.789	0.742	0.629	0.637	0.368	0.302	0.219	0.195
NCI-H2228	0.998	0.774	1.11	0.768	0.751	0.214	0.198	0.212	0.207
NCI-H1299	1.15	1.14	1.14	1.04	0.966	–	–	–	–
NCI-H522	–	–	–	–	–	0.576	0.578	0.558	0.534
NCI-H1703	0.329	0.288	0.327	–	0.322	–	–	–	–
NCI-H1648	–	–	–	–	–	0.242	0.325	0.293	0.344
A549	0.925	0.967	0.998	0.974	0.652	–	–	–	–
